{"source": "ChEMBL document CHEMBL1143816", "about": "“Daptomycin produces an enhanced bactericidal activity compared to ceftriaxone, measured by [3H]choline release in the cerebrospinal fluid, in experimental meningitis due to a penicillin-resistant pneumococcal strain without lysing its cell wall” (2007)", "assay_type_in_all_cases": "functional", "key": {"Streptococcus pneumoniae [1]": {"test_system": "Streptococcus pneumoniae", "assay": "Antimicrobial activity against Streptococcus pneumoniae WB4 by broth macrodilution method"}, "Streptococcus pneumoniae [2]": {"test_system": "Streptococcus pneumoniae", "assay": "Antimicrobial activity in Streptococcus pneumoniae WB4 infected New Zealand white rabbit meningitis model assessed as decrease in viable cells in CSF at 125 mg/kg after 8 hrs"}, "Streptococcus pneumoniae [3]": {"test_system": "Streptococcus pneumoniae", "assay": "Antimicrobial activity in Streptococcus pneumoniae WB4 infected New Zealand white rabbit meningitis model assessed as increase in [3H]choline release in CSF at 125 mg/kg after 4 to 6 hrs"}, "Streptococcus pneumoniae [4]": {"test_system": "Streptococcus pneumoniae", "assay": "Antimicrobial activity in Streptococcus pneumoniae WB4 infected New Zealand white rabbit meningitis model assessed as increase in [3H]choline release in CSF at 15 mg/kg after 4 hrs"}, "Streptococcus pneumoniae [5]": {"test_system": "Streptococcus pneumoniae", "assay": "Antimicrobial activity in Streptococcus pneumoniae WB4 infected New Zealand white rabbit meningitis model assessed as decrease in viable cells in CSF at 15 mg/kg after 8 hrs"}}}
{"molecule": "CO/N=C(\\C(=O)N[C@@H]1C(=O)N2C(C(=O)O)=C(CSc3nc(=O)c(O)nn3C)CS[C@H]12)c1csc(N)n1", "note": "[CEFTRIAXONE]", "values": [{"measurement": "MIC", "setting": "Streptococcus pneumoniae [1]", "value": 0.5, "unit": "µg/mL"}, {"measurement": "log10CFU/ml", "setting": "Streptococcus pneumoniae [2]", "value": -4.04}, {"measurement": "Activity", "setting": "Streptococcus pneumoniae [3]", "value": 2500, "unit": "cpm/min"}]}
{"molecule": "COc1c(N2C[C@@H]3CCCN[C@@H]3C2)c(F)cc2c(=O)c(C(=O)O)cn(C3CC3)c12", "note": "[MOXIFLOXACIN]", "values": [{"measurement": "MIC", "setting": "Streptococcus pneumoniae [1]", "value": 0.12, "unit": "µg/mL"}]}
{"molecule": "CO/N=C(\\C(=O)NC1C(=O)N2C(C(=O)O)=C(COC(C)=O)CS[C@H]12)c1csc(N)n1", "note": "(single isomer, unassigned) [CEFOTAXIME]", "values": [{"measurement": "MIC", "setting": "Streptococcus pneumoniae [1]", "value": 1, "unit": "µg/mL"}]}
{"molecule": "CN[C@H](CC(C)C)C(=O)N[C@H]1C(=O)N[C@@H](CC(N)=O)C(=O)N[C@H]2C(=O)N[C@H]3C(=O)N[C@H](C(=O)N[C@H](C(=O)O)c4cc(O)cc(O)c4-c4cc3ccc4O)[C@H](O)c3ccc(c(Cl)c3)Oc3cc2cc(c3O[C@@H]2O[C@H](CO)[C@@H](O)[C@H](O)[C@H]2O[C@H]2C[C@](C)(N)[C@H](O)[C@H](C)O2)Oc2ccc(cc2Cl)[C@H]1O", "note": "[VANCOMYCIN]", "values": [{"measurement": "MIC", "setting": "Streptococcus pneumoniae [1]", "value": 0.12, "unit": "µg/mL"}]}
{"molecule": "CCCCCCCCCC(=O)N[C@@H](Cc1c[nH]c2ccccc12)C(=O)N[C@H](CC(N)=O)C(=O)N[C@@H](CC(=O)O)C(=O)N[C@@H]1C(=O)NCC(=O)N[C@@H](CCCN)C(=O)N[C@@H](CC(=O)O)C(=O)N[C@H](C)C(=O)N[C@@H](CC(=O)O)C(=O)NCC(=O)N[C@H](CO)C(=O)N[C@@H]([C@H](C)CC(=O)O)C(=O)N[C@@H](CC(=O)c2ccccc2N)C(=O)O[C@@H]1C", "values": [{"measurement": "MIC", "setting": "Streptococcus pneumoniae [1]", "value": 0.06, "unit": "µg/mL"}, {"measurement": "Activity", "setting": "Streptococcus pneumoniae [4]", "value": 250, "unit": "cpm/min"}, {"measurement": "log10CFU/ml", "setting": "Streptococcus pneumoniae [5]", "value": -6.64}]}
